Results on one molecule are retold here after patent publication US20190161516A1, “PROTEASOME INHIBITORS” (University of Kentucky Research Foundation, priority 2017, published 2019).

For one assay, the target named is T1, X/β5 (Homo sapiens, UniProt P20618+P28074).
T1 construct: purchased R&D Systems
The experiment in a line: Proteasome activity assay, purified 20S proteasome, Ac-WLA-AMC. Type of assay: biochemical. On the procedure:
Purified 20S human proteasomes (CP and IP, R&D Systems) were used to assess the in vitro inhibition of proteasome catalytic activity by LMP2 inhibitors. In our 96-well format assays involving a 100 μL total volume, 20S proteasomes (0.5 μg/mL) were incubated with inhibitors or reference compounds (e.g., carfilzomib) in assay buffer (20 mM Tris-HCl, 0.5 mM EDTA, 0.035% SDS) at room temperature for 30 min. Reactions were initiated by the addition of fluorogenic substrates containing the AMC (7-amino-4-methylcoumarin) group. Specifically, the following substrates were used: Suc-LLVY-AMC (CT-L activity, 100 μM), Ac-PAL-AMC (LMP2, 100 μM), Ac-WLA-AMC (β5, 20 μM), Ac-nLPnLD-AMC (β1,100 μM), Ac-RLR-AMC (β2/2i, 20 μM), and Ac-ANW-AMC (β5i, 100 μM). The fluorescence of liberated AMC was measured over a period of 90 min at 360 and 460 nm on a SpectraMax M5 fluorescence plate reader (Molecular Devices). For the proteasome activity of brain tissues isolated from AD mice, tissues were homogenized in RIPA buffer (50 mM Tris Cl, pH 7.4, 150 mM NaCl, 5 mM EDTA, 1% Nonidet P-40, 1% sodium deoxycholate, 0.1% SDS, 1% aprotinin, 50 mM NaF) and sonicated. Samples were centrifuged for 40 min at 14,000×g (4° C.). Protein concentration was determined using the Bradford Assay according to the manufacturer's protocol. […] Fluorescence was recorded for 90 min using a Synergy-HT (Bio Tek) plate reader.

Assay [1] deals with reactive astrocytes and microglia. In words: Immunohistochemical analysis of hippocampal tissues (GFAP, Iba1). Type of assay: in vivo, mouse. From the text:
Activation of neuroglia is closely linked to neuroinflammation, which is reported to be one of major factors involved in the development and progression of AD. Therefore, we set out to investigate whether LMP2 inhibitors could block the activation of astrocytes and microglia. We performed immunohistochemical analysis of hippocampal tissues isolated from the brains of both APPsw and LPS-induced mice, using GFAP and Iba1 as standard markers for reactive astrocytes and microglial, respectively.
Frozen tissues were cut into 30 μm thick sections and stored free floating in cryoprotectant solution (30% ethylenglycol, 20% glycerol, 50 mM sodium phosphate buffer, pH 7.4) at 4° C. until further use. For immunohistological staining, sections were rinsed in 1×PBS, incubated in blocking buffer (1×PBS containing 0.3% Triton X-100 and 10% normal goat serum) for 1 hr at room temperature and primary antibodies for GFAP (1:1000; Abcam) and Iba-1 (1:500; Abcam) were diluted in 1×PBS/0.3% triton X-100/5% normal goat serum and incubated over night at 4° C. […] Fluorescence imaging was performed using an Olympus XM10 monochrome fluorescence CCD camera (Olympus, Germany).

The test system of the next assay is COX-2. In words: COX-2 expression by immunohistochemical analysis of hippocampal tissues. Type of assay: in vivo. To be noted: hippocampal tissues from APPsw mouse, FIG. 11A right panel. On the procedure: To directly verify the role of LMP2 in neuroinflammation pathways, we measured the expression of COX-2 by immunohistochemical analysis of hippocampal tissues from APPsw mouse.
Frozen tissues were cut into 30 μm thick sections and stored free floating in cryoprotectant solution (30% ethylenglycol, 20% glycerol, 50 mM sodium phosphate buffer, pH 7.4) at 4° C. until further use. For immunohistological staining, sections were rinsed in 1×PBS, incubated in blocking buffer (1×PBS containing 0.3% Triton X-100 and 10% normal goat serum) for 1 hr at room temperature and primary antibodies for GFAP (1:1000; Abcam) and Iba-1 (1:500; Abcam) were diluted in 1×PBS/0.3% triton X-100/5% normal goat serum and incubated over night at 4° C. Sections were washed with 1×PBS to wash off excessive primary antibodies, incubated with species specific peroxidase-coupled secondary antibodies (goat anti-mouse or goat anti-rabbit (1:300, Abcam)) diluted in 1×PBS/0.3% Triton X-100/5% normal goat serum and incubated for 1 h on a shaker at RT before developed with liquid diaminobezadine (DAB) (Dako, K3647). Sections were counterstained with matured hematoxylin, followed by dehydration in an ascending alcohol series before covered using Roti®-Histokitt II mounting medium. […] Fluorescence imaging was performed using an Olympus XM10 monochrome fluorescence CCD camera (Olympus, Germany).

On to `CC(=O)NCC(=O)N1CCC[C@H]1C(=O)N[C@@H](Cc1ccccc1)C(=O)N[C@@H](CC(C)C)C(=O)[C@@]1(C)CO1` [YU102], for which, on X/β5, the IC50 is above 10 µM. In assay [1] (GFAP, FIG. 11A), the activation of astrocytes entry is “inhibits activation of astrocytes”. In assay [1] (Iba1, FIG. 11B), the activation of microglia result is listed as “inhibits activation of microglia”. Further, the COX-2 upregulation entry in the assay on COX-2 is recorded as “significantly curtails COX-2 upregulation”.

By IC50 is commonly meant the concentration that inhibits the measured activity by half.
